Measured values taken from the NIST ThermoML archive (doi:10.1021/je049706p).
Numbers after ± are expanded uncertainties.

Test: refractive index (Na D-line) (dimensionless)
Conditions: 293.1 K; 101.33 kPa; Liquid; Standard Abbe refractometry

refractive index: 1.4686 ± 0.0012
Structure (SMILES): CN1CCCC1=O [N-methylpyrrolidone]
